Data taken from US20260216184A1 (SHENZHEN NEWDEL BIOTECH CO., LTD., priority 2023, published 2026).

Key:
[1] = tested on: UUO-induced renal fibrosis; assay: UUO-induced renal fibrosis in mice, H&E staining of kidney tissues; type: in vivo, C57 mice; details: 10 days
Text: (§1) Modeling a UUO model mouse: C57 mice (male, 8 weeks old, weighing 20-25 g) were purchased from Zhejiang Vital River Laboratory Animal Technology Co., Ltd. After anesthesia, a 1-2 cm incision was made in the left kidney region of the abdomen, and the intestinal tract was carefully removed to expose the ureter. The ureter was ligated with double lines and cut off at the middle position of the double-line ligation. The intestinal tract was recovered, and the incision was stitched.
(§2) All animals were administered orally on the day of surgery. Animals in the sham group and vehicle group were administered a test drug vehicle (5% DMSO+5% Tween80+20% PEG400+70% H2O). All administration solutions were freshly prepared before use. The experiment ended 10 days after the administration.
(§3) The preparation method for the positive drug included weighing pirfenidone into a mortar, adding a small amount of 0.5% CMC-Na, grinding the mixture fully and uniformly, supplementing the mixture with the remaining 0.5% CMC-Na, and mixing well for use.
(§4) At the end of the experiment, the left kidney was taken and placed in 4% PFA for fixation. The kidney was conventionally sectioned and stained 24 h after the fixation.

EPHA6 = molecular target: T1, EPHA6 (Homo sapiens, UniProt Q9UF33); assay: EPHA6 enzyme activity assay (HTRF); type: biochemical; details: ATP 25 μM; read-out: IC50 against EPHA6
T1 sequence (Q9UF33 23-1036): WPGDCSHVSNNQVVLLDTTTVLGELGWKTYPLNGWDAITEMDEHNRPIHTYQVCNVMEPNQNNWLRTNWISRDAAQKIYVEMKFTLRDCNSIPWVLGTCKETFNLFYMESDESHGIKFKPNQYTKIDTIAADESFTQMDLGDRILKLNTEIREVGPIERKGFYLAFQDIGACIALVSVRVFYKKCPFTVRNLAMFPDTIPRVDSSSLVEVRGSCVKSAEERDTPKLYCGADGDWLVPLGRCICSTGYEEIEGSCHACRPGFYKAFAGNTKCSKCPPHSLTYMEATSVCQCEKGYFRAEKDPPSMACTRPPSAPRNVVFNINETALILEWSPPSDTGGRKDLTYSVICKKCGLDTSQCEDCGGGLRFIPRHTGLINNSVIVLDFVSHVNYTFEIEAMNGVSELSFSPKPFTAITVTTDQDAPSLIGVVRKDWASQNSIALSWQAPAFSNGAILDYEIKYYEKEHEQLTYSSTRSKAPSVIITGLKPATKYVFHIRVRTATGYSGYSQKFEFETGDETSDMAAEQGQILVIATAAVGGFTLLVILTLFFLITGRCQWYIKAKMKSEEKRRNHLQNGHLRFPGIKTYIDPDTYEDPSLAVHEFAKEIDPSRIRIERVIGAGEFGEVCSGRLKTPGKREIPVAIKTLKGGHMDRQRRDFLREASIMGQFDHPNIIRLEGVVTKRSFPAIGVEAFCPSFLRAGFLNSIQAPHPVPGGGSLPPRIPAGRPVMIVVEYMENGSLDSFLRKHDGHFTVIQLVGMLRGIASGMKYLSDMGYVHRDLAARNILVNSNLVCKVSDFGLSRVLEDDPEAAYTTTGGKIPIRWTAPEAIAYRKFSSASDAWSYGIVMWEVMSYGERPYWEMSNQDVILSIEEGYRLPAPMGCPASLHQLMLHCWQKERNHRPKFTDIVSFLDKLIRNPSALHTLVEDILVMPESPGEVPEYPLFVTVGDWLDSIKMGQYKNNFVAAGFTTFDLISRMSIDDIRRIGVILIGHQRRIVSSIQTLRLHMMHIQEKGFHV
Protocol: Replicate wells were set for the assay. 2× kinase solution was prepared with 1× kinase reaction buffer (5× buffer, 5 mM MgCl2, 1 mM DTT, H2O, and 1 mM MnCl2). 2.5 μL of EPHA6 (0.5 nM, 08-125, Carna) solution was transferred to a 384 reaction plate.

α-SMA = assay: UUO-induced renal fibrosis in mice, α-SMA immunohistochemical staining of kidney tissues; type: in vivo, C57 mice
Text: as §1, §2, §3, §4

F4/80 (macrophages) = assay: UUO-induced renal fibrosis in mice, F4/80 immunohistochemical staining of kidney tissues; type: in vivo, C57 mice; details: 10 days
Text: as §1, §2, §3, §4

[2] = tested on: UUO-induced renal fibrosis; assay: UUO-induced renal fibrosis in mice, Masson staining of collagen fibers in kidney tissues; type: in vivo, C57 mice
Text: as §1, §2, §3, §4

[3] = Relative body weight change in UUO model mice; type: in vivo, C57 mice; details: Group 7, 250 mg/kg BID P.O
Text: as §1, §2, §3
Relative body weight change=body weight on day n/body weight on day 0×100%

With `Cc1c(C#Cc2cnc3ccc(N4CCC(O)CC4)nn23)cccc1C(=O)Nc1cc(Cl)cc(C(F)(F)F)c1` [compound 1, N-(3-chloro-5-(trifluoromethyl)phenyl)-3-((6-(4-hydroxypiperidin-1-yl)imidazo[1,2-b]pyridazin-3-yl)ethynyl)-2-methylbenzamide] the “H&E staining of kidney tissue, compared with the vehicle group” value ([1]; compound 1 dose groups (3, 10, 30, 100 mg/kg QD P.O)) was “reduced tubular atrophy, a looser glomerular structure, and no significant thickening of tubular basement membrane”, the IC50 (EPHA6) was 12.8 nM and the “α-SMA positive area compared with the vehicle group” value (α-SMA; 3 mpk QD P.O, 10 days, P<0.05 (FIG. 4B)) was “significantly reduced”. The “levels of α-SMA compared with the vehicle group” value (α-SMA; 10 mpk, 30 mpk and 100 mpk QD P.O, 10 days (FIG. 4B)) was “significantly reduced”, the “expression levels of macrophages (F4/80) compared with the vehicle group” value (F4/80 (macrophages); 30 mpk and 100 mpk QD P.O) was “significantly reduced” and the “expression levels of macrophages (F4/80) compared with the vehicle group” value (F4/80 (macrophages); each dose group (3, 10, 30, 100 mpk QD P.O)) was “reduced expression levels of macrophages”. For the same compound, the “Masson staining positive area, quantitative analysis” value ([2]; 3 mpk QD P.O, 10 days (FIG. 3B)) was “significantly reduce the Masson staining positive area”, the “Masson staining, collagen deposition in the renal tubular spaces” value ([2]; 3 mpk, 10 mpk, 30 mpk and 100 mpk groups, QD P.O, 10 days (FIG. 3A)) was “significant effect in relieving the collagen deposition” and the “onset dose for treating renal fibrosis” value ([2]; UUO mice, QD P.O, 10 days) was 3 mg/kg.
With `Cc1ccc(=O)n(-c2ccccc2)c1` [pirfenidone] the “H&E staining of kidney tissue, compared with the vehicle group” value ([1]; 250 mg/kg BID P.O) was “a looser glomerular structure and no significant material deposition in the renal tubular spaces”, the “Relative body weight change” value ([3]; day 0) was 100 ± 0.00% and the “Relative body weight change” value ([3]; day 1) was 90.41 ± 0.25%. The “Relative body weight change” value ([3]; day 2) was 89.78 ± 0.81%, the “Relative body weight change” value ([3]; day 3) was 88.90 ± 0.75% and the “Relative body weight change” value ([3]; day 4) was 90.19 ± 0.85%. The “Relative body weight change” value ([3]; day 5) was 91.53 ± 0.62%, the “Relative body weight change” value ([3]; day 6) was 91.83 ± 0.85% and the “Relative body weight change” value ([3]; day 7) was 89.72 ± 0.68%. For the same compound, the “Relative body weight change” value ([3]; day 8) was 90.68 ± 0.85%, the “Relative body weight change” value ([3]; day 9) was 93.04 ± 0.66% and the “Relative body weight change” value ([3]; day 10) was 96.16 ± 1.10%.
